Results on 5 compounds are retold here after US12559529B2, “NPY2 receptor agonists” (Boehringer Ingelheim International GmbH, priority 2019, dated 2026).

Structures are written as SMILES. *1 amine or outer side, *2 acyl side, *3 side chain or, on linkers, in order; H or OH if unused. Where a SMILES comes first, the peptide text is derived from it. Side-chain parts run from the residue outwards. The star is where a group is joined. C18 diacid = O=C(O)CCCCCCCCCCCCCCCCC(=O)*; γGlu = O=C(O)[C@H](CCC(=O)[*:2])N[*:1]; Isovaleryl = CC(C)CC(=O)*; AEEA = NCCOCCOCC(=O)O

The target of this experiment is T1, Human Neuropeptide Y2 Receptor (Homo sapiens, UniProt P49146).
T1 construct: purchased CHEMICON HTS066M
T1 sequence (P49146 1-381): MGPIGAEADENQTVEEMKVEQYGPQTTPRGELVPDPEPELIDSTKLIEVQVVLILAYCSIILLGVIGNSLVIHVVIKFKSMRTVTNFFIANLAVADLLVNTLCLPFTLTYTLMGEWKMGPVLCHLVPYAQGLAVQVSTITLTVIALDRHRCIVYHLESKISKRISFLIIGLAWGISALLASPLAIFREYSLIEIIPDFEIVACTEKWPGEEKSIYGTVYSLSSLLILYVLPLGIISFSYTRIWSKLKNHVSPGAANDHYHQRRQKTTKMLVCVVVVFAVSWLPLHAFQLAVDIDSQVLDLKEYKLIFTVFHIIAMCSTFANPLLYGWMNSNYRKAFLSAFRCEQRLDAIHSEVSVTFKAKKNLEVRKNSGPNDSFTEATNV
Description: Radioligand binding competition assay (RLB). Conditions: Table 3; human 125I-PYY (1-36) 0.02 nM, Y2 receptor membranes; read-out: Ki. The essentials: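 Membranes (0.5 μg/well) and test peptides, serially diluted from 1 mM DMSO stocks, were incubated 2 hours at room temperature in HEPES buffer pH 7.4 with Mg, Ca and ovalbumin.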

Usually Ki stands for a measure of affinity in units of concentration, obtained from inhibition or displacement. Turning to `CC(C)CC(=O)N[C@@H](C)C(=O)N1CCC[C@H]1C(=O)N[C@@H](CCC(=O)O)C(=O)N[C@@H](CCCCNC(=O)COCCOCCNC(=O)COCCOCCNC(=O)CC[C@H](NC(=O)CCCCCCCCCCCCCCCCC(=O)O)C(=O)O)C(=O)N1CCC[C@H]1C(=O)N[C@@H](CCC(=O)O)C(=O)N[C@@H](CCC(=O)O)C(=O)N[C@@H](CCC(=O)O)C(=O)N[C@@H](C)C(=O)N[C@@H](CO)C(=O)N1CCC[C@H]1C(=O)N[C@@H](CCC(=O)O)C(=O)N[C@@H](CCC(=O)O)C(=O)N[C@@H](CC(C)C)C(=O)N[C@@H](CCC(N)=O)C(=O)N[C@@H](C)C(=O)N[C@@H](Cc1ccc(O)cc1)C(=O)N[C@@H](Cc1ccc(O)cc1)C(=O)N[C@H](C(=O)N[C@@H](CO)C(=O)N[C@@H](CC(C)C)C(=O)N[C@@H](CCCNC(=N)N)C(=O)N[C@@H](Cc1c[nH]cn1)C(=O)N[C@@H](Cc1ccc(O)cc1)C(=O)N[C@@H](Cc1ccc(O)cc1)C(=O)N[C@@H](CC(N)=O)C(=O)N[C@@H](Cc1c[nH]c2ccccc12)C(=O)N[C@@H](CC(C)C)C(=O)N[C@H](C(=O)N[C@@H](CCCNC(=N)N)C(=O)N[C@@H](CCC(N)=O)C(=O)N[C@@H](CCCNC(=N)N)C(=O)N[C@@H](Cc1ccc(O)cc1)C(N)=O)[C@@H](C)O)C(C)C` [Compound 68, N{alpha-4}-(3-methylbutanoyl)-N{epsilon-7}-[2-(2-{2-[2-(2-{2-[(4S)-4-carboxy-4-(17-carboxyheptadecanamido)butanamido]ethoxy}ethoxy)acetamido]ethoxy}ethoxy)acetamido]-[4A,7K,9E,11E,18Q,19A,22V,28Y,30W,31L]hPYY (4-36)] (Isovaleryl-APEK([AEEA-AEEA-γGlu-C18 diacid])PEEEASPEELQAYYVSLRHYYNWLTRQRY-NH2), the Ki came out at 8.47 nM. As to `CC(C)CC(=O)N[C@@H](C)C(=O)N1CCC[C@H]1C(=O)N[C@@H](CCC(=O)O)C(=O)N[C@@H](CCCCNC(=O)COCCOCCNC(=O)COCCOCCNC(=O)CC[C@H](NC(=O)CCCCCCCCCCCCCCCCC(=O)O)C(=O)O)C(=O)N1CCC[C@H]1C(=O)N[C@@H](CCC(=O)O)C(=O)N[C@@H](CCC(=O)O)C(=O)N[C@@H](CC(=O)O)C(=O)N[C@@H](CO)C(=O)N[C@@H](CO)C(=O)N[C@@H](C)C(=O)N[C@@H](CCC(=O)O)C(=O)N[C@@H](CCC(=O)O)C(=O)N[C@@H](CC(C)C)C(=O)N[C@@H](CCC(N)=O)C(=O)N[C@@H](CCCNC(=N)N)C(=O)N[C@@H](Cc1ccc(O)cc1)C(=O)N[C@@H](Cc1ccc(O)cc1)C(=O)N[C@H](C(=O)N[C@@H](CO)C(=O)N[C@@H](CC(C)C)C(=O)N[C@@H](CCCNC(=N)N)C(=O)N[C@@H](Cc1c[nH]cn1)C(=O)N[C@@H](Cc1ccc(O)cc1)C(=O)N[C@@H](Cc1ccc(O)cc1)C(=O)N[C@@H](CC(N)=O)C(=O)N[C@@H](Cc1c[nH]c2ccccc12)C(=O)N[C@@H](CC(C)C)C(=O)N[C@H](C(=O)N[C@@H](CCCNC(=N)N)C(=O)N[C@@H](CCC(N)=O)C(=O)N[C@@H](CCCNC(=N)N)C(=O)N[C@@H](Cc1ccc(O)cc1)C(N)=O)[C@@H](C)O)C(C)C` [Compound 69, N{alpha-4}-(3-methylbutanoyl)-N{epsilon-7}-[2-(2-{2-[2-(2-{2-[(4S)-4-carboxy-4-(17-carboxyheptadecanamido)butanamido]ethoxy}ethoxy)acetamido]ethoxy}ethoxy)acetamido]-[4A,7K,9E,12S,14A,18Q,22V,28Y,30W,31L]hPYY (4-36)], the Ki was determined as 5.74 nM.

Consider `CC(C)CC(=O)N[C@@H](C)C(=O)N1CCC[C@H]1C(=O)N[C@@H](CCC(=O)O)C(=O)N[C@@H](CCCCNC(=O)COCCOCCNC(=O)COCCOCCNC(=O)CC[C@H](NC(=O)CCCCCCCCCCCCCCCCC(=O)O)C(=O)O)C(=O)N1CCC[C@H]1C(=O)N[C@@H](CCC(=O)O)C(=O)N[C@@H](CCC(=O)O)C(=O)N[C@@H](C)C(=O)N[C@@H](C)C(=O)N[C@@H](CO)C(=O)N1CCC[C@H]1C(=O)N[C@@H](CCC(=O)O)C(=O)N[C@@H](CCC(=O)O)C(=O)N[C@@H](CC(C)C)C(=O)N[C@@H](CCC(N)=O)C(=O)N[C@@H](CCCNC(=N)N)C(=O)N[C@@H](Cc1ccc(O)cc1)C(=O)N[C@@H](CCC(=O)O)C(=O)N[C@H](C(=O)N[C@@H](CO)C(=O)N[C@@H](CC(C)C)C(=O)N[C@@H](CCCNC(=N)N)C(=O)N[C@@H](Cc1c[nH]cn1)C(=O)N[C@@H](Cc1ccc(O)cc1)C(=O)N[C@@H](Cc1ccc(O)cc1)C(=O)N[C@@H](CC(N)=O)C(=O)N[C@@H](Cc1c[nH]c2ccccc12)C(=O)N[C@@H](CC(C)C)C(=O)N[C@H](C(=O)N[C@@H](CCCNC(=N)N)C(=O)N[C@@H](CCC(N)=O)C(=O)N[C@@H](CCCNC(=N)N)C(=O)N[C@@H](Cc1ccc(O)cc1)C(N)=O)[C@@H](C)O)C(C)C` [Compound 70, N{alpha-4}-(3-methylbutanoyl)-N{epsilon-7}-[2-(2-{2-[2-(2-{2-[(4S)-4-carboxy-4-(17-carboxyheptadecanamido)butanamido]ethoxy}ethoxy)acetamido]ethoxy}ethoxy)acetamido]-[4A,7K,9E,11A,18Q,21E,22V,28Y,30W,31L]hPYY (4-36)] (Isovaleryl-APEK([AEEA-AEEA-γGlu-C18 diacid])PEEAASPEELQRYEVSLRHYYNWLTRQRY-NH2), for which the Ki was 4.86 nM.

As for `CC(C)CC(=O)N[C@@H](C)C(=O)N1CCC[C@H]1C(=O)N[C@@H](CCC(=O)O)C(=O)N[C@@H](CCCCNC(=O)COCCOCCNC(=O)COCCOCCNC(=O)CC[C@H](NC(=O)CCCCCCCCCCCCCCCCC(=O)O)C(=O)O)C(=O)N1CCC[C@H]1C(=O)N[C@@H](CCC(=O)O)C(=O)N[C@@H](CCC(=O)O)C(=O)N[C@@H](CCC(=O)O)C(=O)N[C@@H](C)C(=O)N[C@@H](CO)C(=O)N1CCC[C@H]1C(=O)N[C@@H](CO)C(=O)N[C@@H](CCC(=O)O)C(=O)N[C@@H](CC(C)C)C(=O)N[C@@H](CCC(N)=O)C(=O)N[C@@H](CCCNC(=N)N)C(=O)N[C@@H](Cc1ccc(O)cc1)C(=O)N[C@@H](Cc1ccc(O)cc1)C(=O)N[C@H](C(=O)N[C@@H](CO)C(=O)N[C@@H](CC(C)C)C(=O)N[C@@H](CCCNC(=N)N)C(=O)N[C@@H](Cc1c[nH]cn1)C(=O)N[C@@H](Cc1ccc(O)cc1)C(=O)N[C@@H](Cc1ccc(O)cc1)C(=O)N[C@@H](CC(N)=O)C(=O)N[C@@H](Cc1c[nH]c2ccccc12)C(=O)N[C@@H](CC(C)C)C(=O)N[C@H](C(=O)N[C@@H](CCCNC(=N)N)C(=O)N[C@@H](CCC(N)=O)C(=O)N[C@@H](CCCNC(=N)N)C(=O)N[C@@H](Cc1ccc(O)cc1)C(N)=O)[C@@H](C)O)C(C)C` [Compound 71, N{alpha-4}-(3-methylbutanoyl)-N{epsilon-7}-[2-(2-{2-[2-(2-{2-[(4S)-4-carboxy-4-(17-carboxyheptadecanamido)butanamido]ethoxy}ethoxy)acetamido]ethoxy}ethoxy)acetamido]-[4A,7K,9E,11E,15S,18Q,22V,28Y,30W,31L]hPYY (4-36)] (Isovaleryl-APEK([AEEA-AEEA-γGlu-C18 diacid])PEEEASPSELQRYYVSLRHYYNWLTRQRY-NH2), the Ki is 5.22 nM. Then `CC(C)CC(=O)N[C@@H](C)C(=O)N1CCC[C@H]1C(=O)N[C@@H](CCC(=O)O)C(=O)N[C@@H](CCCCNC(=O)COCCOCCNC(=O)COCCOCCNC(=O)CC[C@H](NC(=O)CCCCCCCCCCCCCCCCC(=O)O)C(=O)O)C(=O)N1CCC[C@H]1C(=O)N[C@@H](CCC(=O)O)C(=O)N[C@@H](CCC(=O)O)C(=O)N[C@@H](CC(=O)O)C(=O)N[C@@H](C)C(=O)N[C@@H](CO)C(=O)N[C@@H](CCC(=O)O)C(=O)N[C@@H](CCC(=O)O)C(=O)N[C@@H](CCC(=O)O)C(=O)N[C@@H](CC(C)C)C(=O)N[C@@H](CCC(N)=O)C(=O)N[C@@H](CCCNC(=N)N)C(=O)N[C@@H](Cc1ccc(O)cc1)C(=O)N[C@@H](Cc1ccc(O)cc1)C(=O)N[C@H](C(=O)N[C@@H](CCC(=O)O)C(=O)N[C@@H](CC(C)C)C(=O)N[C@@H](CCCNC(=N)N)C(=O)N[C@@H](Cc1c[nH]cn1)C(=O)N[C@@H](Cc1ccc(O)cc1)C(=O)N[C@@H](Cc1ccc(O)cc1)C(=O)N[C@@H](CC(N)=O)C(=O)N[C@@H](Cc1c[nH]c2ccccc12)C(=O)N[C@@H](CC(C)C)C(=O)N[C@H](C(=O)N[C@@H](CCCNC(=N)N)C(=O)N[C@@H](CCC(N)=O)C(=O)N[C@@H](CCCNC(=N)N)C(=O)N[C@@H](Cc1ccc(O)cc1)C(N)=O)[C@@H](C)O)C(C)C` [Compound 77, N{alpha-4}-(3-methylbutanoyl)-N{epsilon-7}-[2-(2-{2-[2-(2-{2-[(4S)-4-carboxy-4-(17-carboxyheptadecanamido)butanamido]ethoxy}ethoxy)acetamido]ethoxy}ethoxy)acetamido]-[4A,7K,9E,14E,18Q,22V,23E,28Y,30W,31L]hPYY (4-36)], with 6.17 nM.
